Data as given in paper doi:10.1101/2025.05.10.653276 (bioRxiv, 2025).
Where two headings read alike, the source gives them in different places.

How the values were obtained:
B. ovis [1] = assay: microbe, parasite or virus in culture; format: cell-based; details: Brucella ovis
B. ovis [2] = assay: microbe, parasite or virus in culture; format: cell-based, Brucella ovis; details: for IC50: Brucella ovis
in vitro = details: human
B. ovis [3] = format: cell-based, Brucella ovis
L-type Ca^2+ channels = details: read-out: Reported IC50 for L-type Ca^2+ channels; cited from earlier work
B. abortus [4] = assay: microbe, parasite or virus in culture; format: cell-based, Brucella abortus; details: for IC50: Brucella abortus, 48 h, read-out: IC50, axenic B. abortus WT (Fig. S6B)
THP-1 cells [5] = format: cell-based, human
B. abortus [6] = assay: microbe, parasite or virus in culture; format: cell-based; details: Brucella abortus, THP-1, 48 h, read-out: IC50, intracellular B. abortus
B. ovis [7] = format: cell-based, Brucella ovis; remark: listed apart in the source
B. abortus [8] = format: cell-based, Brucella abortus
THP-1 cells [9] = tested on: THP-1 cells
B. ovis [10] = format: cell-based, Brucella ovis; remark: listed apart in the source
B. abortus [11] = format: cell-based, Brucella abortus; remark: listed apart in the source
[12] = THP-1, read-out: Intracellular IC50
[13] = THP-1, 48 h, read-out: IC50, intracellular B. ovis growth
[14] = 48 h, read-out: IC50, axenic B. ovis growth

COc1ccc(CN2CCN(C(c3ccc(F)cc3)c3ccc(F)cc3)CC2)c(OC)c1OC [Lomerizine]
IC50 (B. ovis [1]; [12]): 9 µM | IC50 (B. ovis [2]; read-out: Axenic IC50): > 50 µM | CC50 (in vitro): 50 µM

c1ccc(-c2ccc(C(c3ccccc3)n3ccnc3)cc2)cc1 (stereo not shown) [Bifonazole]
IC50 (B. ovis [1]; [12]): 14 µM | IC50 (B. ovis [2]; read-out: Axenic IC50): 4 µM | CC50 (in vitro): > 50 µM

CC(=O)SCC(Cc1ccccc1)C(=O)NCC(=O)OCc1ccccc1 (stereo not shown) [Racecadotril]
IC50 (B. ovis [1]; [12]): > 50 µM | IC50 (B. ovis [2]; read-out: Axenic IC50): > 50 µM | CC50 (in vitro): > 50 µM

COC(=O)C1=C(C)NC(C)=C(C(=O)OC)C1c1ccccc1[N+](=O)[O-] [nifedipine]
Hit in B. ovis intracellular screen (B. ovis [3]): neither compound emerged as a hit

COC(=O)C1=C(C)NC(C)=C(C(=O)OCCN(C)Cc2ccccc2)C1c1cccc([N+](=O)[O-])c1 (stereo not shown) [Nicardipine]
IC50 (B. ovis [1]; [13]): 2.3 µM | IC50 (B. ovis [1]; [12]): 2 µM | IC50 (L-type Ca^2+ channels): ~25 µM | Sensitivity of WT and ΔbepE B. abortus in axenic conditions (B. abortus [4]): insensitive | IC50 (B. abortus [4]): > 25 µM | Effect on terminal density of B. ovis in axenic culture (B. ovis [2]): did not affect the terminal density | IC50 (B. ovis [2]; [14]): > 25 µM | IC50 (B. ovis [2]; read-out: Axenic IC50): > 50 µM | Increase in intracellular calcium and manganese levels (THP-1 cells [5]): 20–40% | IC50 (B. abortus [6]): 4.4 µM | CC50 (in vitro): 49 µM | Growth of WT B. ovis in liquid culture (kinetic growth assay) (B. ovis [7]): modest lag | WT B. abortus CFUs recovered from treated THP-1 cells compared to untreated controls (B. abortus [8]): significantly fewer | Host cytotoxicity in B. ovis-infected THP-1 cells (THP-1 cells [9]): not due to host cytotoxicity

OCCN(CCO)c1nc(N2CCCCC2)c2nc(N(CCO)CCO)nc(N3CCCCC3)c2n1 [Dipyridamole]
IC50 (B. ovis [1]; [12]): > 50 µM | IC50 (B. ovis [2]; read-out: Axenic IC50): > 50 µM | CC50 (in vitro): 41 µM

CCCCN(CCCC)CCC(O)c1cc2c(Cl)cc(Cl)cc2c2cc(C(F)(F)F)ccc12 (stereo not shown) [Halofantrine]
IC50 (B. ovis [1]; [12]): > 50 µM | IC50 (B. ovis [2]; read-out: Axenic IC50): 11 µM | CC50 (in vitro): > 50 µM

O=C1CCc2ccc(OCCCCN3CCN(c4cccc(Cl)c4Cl)CC3)cc2N1 [Aripiprazole]
CC50 (in vitro): 12 µM

CCCCCCCCCCCCOS(=O)(=O)[O-].[Na+] [SDS, sodium dodecyl sulfate]
Sensitivity of WT B. ovis on TSA blood plates (B. ovis [10]): highly sensitive

COc1ccc(CCN(C)CCCC(C#N)(c2ccc(OC)c(OC)c2)C(C)C)cc1OC (stereo not shown) [verapamil]
Hit in B. ovis intracellular screen (B. ovis [3]): neither compound emerged as a hit

N[C@@H]1C[C@H]1c1ccccc1 (racemic) [Tranylcypromine]
IC50 (B. ovis [1]; [12]): > 50 µM | IC50 (B. ovis [2]; read-out: Axenic IC50): > 50 µM | CC50 (in vitro): > 50 µM

COCCOC(=O)C1=C(C)NC(C)=C(C(=O)OC/C=C/c2ccccc2)C1c1cccc([N+](=O)[O-])c1 (stereo not shown) [Cilnidipine]
IC50 (B. ovis [1]; [13]): 2.5 µM | IC50 (B. ovis [1]; [12]): 2 µM | Sensitivity of WT and ΔbepE B. abortus in axenic conditions (B. abortus [4]): insensitive | IC50 (B. abortus [4]): > 25 µM | Concentrations inhibiting B. ovis growth in complex liquid broth (B. ovis [2]): above 5 μM | IC50 (B. ovis [2]; [14]): 5.09 µM | IC50 (B. ovis [2]; read-out: Axenic IC50): 5 µM | IC50 (B. abortus [6]): 13.5 µM | CC50 (in vitro): > 50 µM | Growth of WT B. ovis in liquid culture (kinetic growth assay) (B. ovis [7]): failed to grow | CFU recovery of ΔbepE B. abortus relative to wild-type in treated THP-1 cells (B. abortus [8]): significant reduction in CFU recovery | Host cytotoxicity in B. ovis-infected THP-1 cells (THP-1 cells [9]): not due to host cytotoxicity

C[C@H](CCC(=O)O)[C@H]1CC[C@H]2[C@@H]3CC[C@@H]4C[C@H](O)CC[C@]4(C)[C@H]3C[C@H](O)[C@]12C [deoxycholate]
IC50 (B. abortus strain WT) (B. abortus [4]): 0.067% | IC50 (B. abortus strain ΔbepE glmS::bepDE) (B. abortus [4]): 0.052% | IC50 (B. abortus strain ΔbepE) (B. abortus [4]): 0.021% | Sensitivity of WT B. ovis on TSA blood plates (B. ovis [10]): highly sensitive | Growth of WT B. abortus on solid media (B. abortus [11]): modestly impaired WT growth | Growth of ΔbepE B. abortus on solid media (B. abortus [11]): unable to grow

CCOc1ccc(NC(C)=O)cc1 [Phenacetin]
IC50 (B. ovis [1]; [12]): > 50 µM | IC50 (B. ovis [2]; read-out: Axenic IC50): > 50 µM | CC50 (in vitro): > 50 µM

C[C@H](CCC(=O)NCCC[N+](C)(C)CCCS(=O)(=O)[O-])[C@H]1CC[C@H]2[C@@H]3[C@H](O)C[C@@H]4C[C@H](O)CC[C@]4(C)[C@H]3C[C@H](O)[C@]12C [CHAPS]
Sensitivity of WT B. ovis on TSA blood plates (B. ovis [10]): highly sensitive
